# Laboratory results reported in patent US20210040428A1, “MICROFLUIDIC DEVICE AND METHOD FOR DETERMINING CELL ELECTRICAL BARRIER PROPERTIES” (University of Southampton, priority 2018, published 2021).
# Test system: differentiated culture of primary bronchial human cells
# Test: Barrier disruption at the air-liquid interface: epithelial barrier resistance Rc by impedance spectroscopy before and after EGTA stimulation
# Type: cell-based
# Conditions: paired t-test
# Description: Impedance spectra were measured before and after EGTA stimulation either submerged or at the air-liquid interface. The extrapolated values of the equivalent resistance Rc were compared with TER values.
# FIG. 17 is a bar chart of fitted resistance values, Rc, showing the disruption induced by the EGTA stimulation.
# Electrical impedance spectroscopy (EIS) measurements were performed using the two electrodes configuration of an Alpha-A impedance analyser (Novocontrol Technologies, Germany). A frequency sweep was performed between 100 Hz and 100 kHz, with an applied voltage of 0.05 V(rms). Prior to the EIS measurement, the medium in the apical compartment was replaced with different volumes (200 μl, 50 μl, 20 μl, 10 μl) of fresh medium at room-temperature. Each Transwell® support was placed on top of the planar electrodes only for the duration of the measurement (≈30 s). Trans-epithelial electrical resistance (TER) measurements were performed using chopstick electrodes connected to an EVOM2 Epithelial Volt-ohm-meter (World Precision Instruments).
# A custom script was developed in Matlab (© 2015 The MathWorks) to fit the complex electrical impedance data with the equivalent electric circuit model. The objective function to be minimized during the fitting was defined as: […]
# The absolute value of the impedance was used as the normalizing factor. […]
smiles,measurement,setting,value
"O=C(O)CN(CCOCCOCCN(CC(=O)O)CC(=O)O)CC(=O)O [EGTA, ethylene glycol-bis(β-aminoethyl ether)-N,N,N′,N′-tetraacetic acid]","fitted resistance Rc of the epithelial barrier, change after stimulation compared to the control",air-liquid interface measurement,statistically significant (paired t-test) drop
same,"fitted resistance Rc of the epithelial barrier, change after stimulation compared to the control",submerged measurement,statistically significant (paired t-test) drop
